Test results taken from patent US8361968B2 (Takeda Pharmaceutical Company Limited, priority 2002, dated 2013).
Numbered stars: 1 amine (or outer) side, 2 acyl side, 3 side chain; on linkers, the order of the positions; unused ones are H or OH. Square brackets hold non-standard residues; d marks the D form. Ends that are not written are not given here. Peptide text beside a SMILES is read from it. * marks the point of attachment. X5 = NC(=O)C[C@@H](CN([C@@H](Cc1c[nH]c2ccccc12)C(=O)[*:2])[*:1])N[*:3]; X10 = NC(=O)C[C@@H](C(=O)[*:2])N(C[C@@H](N)Cc1ccc(O)cc1)[*:1]; X11 = O=C(CNC(=S)[C@H](Cc1ccccc1)N[*:1])[*:2]; Acetyl(2-(4-imidazolyl)) = O=C(Cc1c[nH]cn1)*; 2Nal = N[C@@H](Cc1ccc2ccccc2c1)C(=O)O; Arg(Me) = CNC(=N)NCCC[C@H](N)C(=O)O; Boc = CC(C)(C)OC(=O)*; azaGly = NNC(=O)O

Molecular target: hOT7T175 (Homo sapiens, UniProt Q969F8, L364H)
Experiment: Intracellular Ca ion level-increasing activity using FLIPR in hOT7T175/CHO
Type: cell-based
Design: expressed in transfected cells; host or cells: CHO/dhfr- cells, obtained from ATCC
Conditions: relative, Metastin (1-54) = 1
Protocol: Assay for Intracellular Ca Ion Level-Increasing Activity Using Flipr
In accordance with the method described in JPA 2000-312590, the intracellular Ca ion level-increasing activity was measured using FLIPR.
The stable expression cell line hOT7T175 was acquired by transduction of expression plasmid pAK-rOT175 for animal cells into CHO/dhff cells, using CellPhect Transfection Kit (Amersham Pharmacia Biotech, Inc.). First, 240 μL of Buffer A (attached to CellPhect Transfection Kit) was added to 9.6 μg of plasmid DNA dissolved in 240 μl of distilled water, followed by stirring. After settling the mixture for 10 minutes, 480 μL of Buffer B (attached to CellPhect Transfection Kit) was added to the mixture, which was vigorously stirred to form DNA-containing liposomes. Then, 4×10^5 CHO/dhff cells (obtained from ATCC) were inoculated on a 60 mm Petri dish. […] After culturing the cells at 37° C. for 6 hours in 5% carbon dioxide gas, the cells were washed twice with serum-free Ham's F-12 medium and 3 ml of 15% glycerol was added to the cells in the Petri dish to treat for 2 minutes. The cells were again washed twice with serum-free Ham's F-12 medium followed by incubation in Ham's F-12 medium supplemented with 10% fetal bovine serum at 37° C. for 15 hours in 5% carbon dioxide gas. The cells were dispersed by trypsin treatment and recovered from the Petri dish. The recovered cells were inoculated on a 6-well plate in 1.25×10^4 cells/well and incubation was initiated at 37° C. in Dulbecco's modified Eagle medium (DMEM) medium (Nissui Seiyaku Co., Ltd.) containing 10% dialyzed fetal bovine serum (JRH BIOSCIENCES, Inc.) under 5% carbon dioxide gas. […] The medium was exchanged on Days 1 and 2 to remove the cells died.
The intracellular Ca ion level-increasing activity of the synthetic peptide in hOT7T175/CHO was determined using FLIPR (Molecular Devices, Inc.).
hOT7T175/CHO was subcultured in DMEM supplemented with 10% dialyzed fetal bovine serum (hereinafter abbreviated as dFBS) and provided for the experiment (hereinafter abbreviated as 10% dFBS/DMEM). The hOT7T175/CHO was suspended in 10% dFBS-DMEM in 15×10^4 cells/ml. The suspension was inoculated on a 96-well plate for FLIPR (Black Plate Clear Bottom, Coster, Inc.) at 200 μL each (3.0×10^4 cells/200 μL/well), followed by incubation at 37° C. overnight in a 5% CO2 incubator (hereinafter simply referred to as the cell plate). Then, 21 ml of HANKS/HBSS (9.8 g of HANKS, 0.35 g of sodium hydrogencarbonate, 20 ml of 1M HEPES; after adjusting the pH to 7.4 with 1N sodium hydroxide, the mixture was sterilized by filtration), 210 μl of 250 mM Probenecid and […] of fetal bovine serum (FBS) were mixed (HANKS/HBSS-Probenecid-FBS).
Furthermore, 2 vials of Fluo3-AM (50 μug/vial) were dissolved in 21 μL of dimethylsulfoxide and 21 μL of 20% Pluronic acid. The resulting solution was added to and mixed with 10 ml of HANKS/HBSS-Probenecid-FBS described above. After the culture medium was removed, the mixture was dispensed onto the cell plate in 100 μL each/well, followed by incubation at 37° C. for an hour in a 5% CO2 incubator (pigment loading). The peptide was dissolved in dimethylsulfoxide in 1×10^−3 M. The peptide solution was diluted with HANKS/HBSS containing 2.5 mM Probenecid, 0.2% BSA and 0.1% CHAPS.

Sequence of hOT7T175 (Q969F8 whole entry L364H): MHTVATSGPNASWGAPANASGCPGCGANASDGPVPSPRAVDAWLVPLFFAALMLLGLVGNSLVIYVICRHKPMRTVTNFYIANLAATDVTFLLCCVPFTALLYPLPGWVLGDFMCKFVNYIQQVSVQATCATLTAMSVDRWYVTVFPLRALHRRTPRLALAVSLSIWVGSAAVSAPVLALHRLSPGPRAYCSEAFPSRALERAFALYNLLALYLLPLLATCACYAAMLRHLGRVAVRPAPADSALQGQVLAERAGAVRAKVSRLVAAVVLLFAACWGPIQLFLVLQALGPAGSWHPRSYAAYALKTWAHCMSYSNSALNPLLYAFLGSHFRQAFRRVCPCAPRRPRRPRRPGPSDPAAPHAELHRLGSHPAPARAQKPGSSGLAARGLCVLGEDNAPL

Specific Activity (intracellular Ca ion level-increasing activity) | Compound
3 | CC(C)C[C@H](NC(=O)CNC(=O)[C@H](Cc1ccccc1)NC(=O)[C@H](CO)NC(=O)[C@H](CC(N)=O)NC(=O)[C@H](Cc1c[nH]c2ccccc12)NC(=O)[C@H](CC(N)=O)NC(=O)[C@@H](N)Cc1ccc(O)cc1)C(=O)N[C@@H](CCNC(=N)N)C(=O)N[C@@H](Cc1ccccc1)C(N)=O [Compound No. 310]
20 | CC(C)C[C@H](NC(=O)CNC(=O)[C@H](Cc1ccccc1)NC(=O)[C@H](CO)NC(=O)[C@H](CC(N)=O)NC(=O)[C@H](Cc1c[nH]c2ccccc12)NC(=O)[C@H](CC(N)=O)NC(=O)[C@@H](N)Cc1ccc(O)cc1)C(=O)N[C@@H](CCCNC(=N)N)C(=O)N[C@@H](Cc1ccc2ccccc2c1)C(N)=O [Compound No. 110] (H-YNWNSFGLR[2Nal]-NH2)
1 | CC(C)C[C@H](NC(=O)CNC(=O)[C@H](Cc1ccccc1)NC(=O)[C@H](CO)NC(=O)[C@H](CC(N)=O)NC(=O)[C@H](Cc1c[nH]c2ccccc12)NC[C@H](CC(N)=O)NC(=O)[C@@H](N)Cc1ccc(O)cc1)C(=O)N[C@@H](CCCNC(=N)N)C(=O)N[C@@H](Cc1ccccc1)C(N)=O [Compound No. 295] (H-[X5](Tyr)NSFGLRF-NH2)
10 | CC(=O)N[C@@H](Cc1ccc(O)cc1)C(=O)N[C@@H](CC(N)=O)C(=O)N[C@@H](Cc1c[nH]c2ccccc12)C(=O)N[C@@H](CC(N)=O)C(=O)N[C@@H](CO)C(=O)N[C@@H](Cc1ccccc1)C(=O)NCC(=O)N[C@@H](CC(C)C)C(=O)N[C@@H](CCCNC(=N)N)C(=O)N[C@@H](Cc1ccccc1)C(N)=O [Compound No. 30]
10 | CC(C)C[C@H](NC(=O)CNC(=O)[C@H](Cc1ccccc1)NC(=O)[C@H](CO)NC(=O)[C@H](CC(N)=O)NC(=O)[C@H](Cc1c[nH]c2ccccc12)NC(=O)[C@H](CC(N)=O)NC[C@@H](N)Cc1ccc(O)cc1)C(=O)N[C@@H](CCCNC(=N)N)C(=O)N[C@@H](Cc1ccccc1)C(N)=O [Compound No. 294] (H-[X10]WNSFGLRF-NH2)
1 | CC(C)C[C@H](NC(=O)CNC[C@H](Cc1ccccc1)NC(=O)[C@H](CO)NC(=O)[C@H](CC(N)=O)NC(=O)[C@H](Cc1c[nH]c2ccccc12)NC(=O)[C@H](CC(N)=O)NC(=O)[C@@H](N)Cc1ccc(O)cc1)C(=O)N[C@@H](CCCNC(=N)N)C(=O)N[C@@H](Cc1ccccc1)C(N)=O [Compound No. 163, Tyr-Asn-Trp-Asn-Ser-PheΨ(CH2NH)Gly-Leu-Arg-Phe-NH2]
2 | CNC(=N)NCCC[C@H](NC(=O)[C@H](CC(C)C)NC(=O)NNC(=O)[C@H](Cc1ccccc1)NC(=O)[C@H](CO)NC(=O)[C@H](CC(N)=O)NC(=O)[C@H](Cc1ccc2ccccc2c1)NC(=O)[C@H](CC(N)=O)NC(=O)[C@H](N)Cc1ccc(O)cc1)C(=O)N[C@@H](Cc1ccccc1)C(N)=O [Compound No. 246, D-Tyr-Asn-Nal(2)-Asn-Ser-Phe-AzaGly-Leu-Arg(Me)-Phe-NH2] (H-[dY]N[2Nal]NSF[azaGly]L[Arg(Me)]F-NH2)
1 | CCNC(=N)NCCC[C@H](NC(=O)[C@H](CC(C)C)NC(=O)CNC(=O)[C@H](Cc1ccccc1)NC(=O)[C@H](CO)NC(=O)[C@H](CC(N)=O)NC(=O)[C@H](Cc1c[nH]c2ccccc12)NC(=O)[C@H](CC(N)=O)NC(=O)[C@H](N)Cc1ccc(O)cc1)C(=O)N[C@@H](Cc1ccccc1)C(N)=O [Compound No. 192]
3 | CNC(=N)NCCC[C@H](NC(=O)[C@H](CC(C)C)NC(=O)CNC(=S)[C@H](Cc1ccccc1)NC(=O)[C@H](CO)NC(=O)[C@H](CC(N)=O)NC(=O)[C@H](Cc1c[nH]c2ccccc12)NC(=O)[C@H](CC(N)=O)NC(=O)[C@H](N)Cc1ccc(O)cc1)C(=O)N[C@@H](Cc1ccccc1)C(N)=O [Compound No. 296, D-Tyr-Asn-Trp-Asn-Ser-PheΨ(CSNH)Gly-Leu-Arg(Me)-Phe-NH2] (H-[dY]NWNS[X11]L[Arg(Me)]F-NH2)
3 | CNC(=N)NCCC[C@H](NC(=O)[C@H](CC(C)C)NC(=O)NNC(=O)[C@H](Cc1ccccc1)NC(=O)[C@H](CO)NC(=O)[C@H](CC(N)=O)NC(=O)[C@H](Cc1ccccc1)NC(=O)[C@@H](CC(N)=O)NC(=O)[C@H](N)Cc1ccc(O)cc1)C(=O)N[C@@H](Cc1ccccc1)C(N)=O [Compound No. 257, D-Tyr-D-Asn-Phe-Asn-Ser-Phe-AzaGly-Leu-Arg(Me)-Phe-NH2] (H-[dY][dN]FNSF[azaGly]L[Arg(Me)]F-NH2)
10 | CNC(=N)NCCC[C@H](NC(=O)[C@H](CC(C)C)NC(=O)CNC(=O)[C@H](Cc1ccccc1)NC(=O)[C@H](CO)NC(=O)[C@H](CC(N)=O)NC(=O)[C@H](Cc1c[nH]c2ccccc12)NC(=O)[C@@H](NC(=O)[C@H](N)Cc1ccc(O)cc1)[C@@H](C)O)C(=O)N[C@@H](Cc1ccccc1)C(N)=O [Compound No. 215] (H-[dY]TWNSFGL[Arg(Me)]F-NH2; N-terminus assumed)
30 | CC(C)C[C@H](NC(=O)CNC(=O)[C@H](Cc1ccccc1)NC(=O)[C@H](CO)NC(=O)[C@H](CC(N)=O)NC(=O)[C@@H](Cc1c[nH]c2ccccc12)NC(=O)[C@H](CC(N)=O)NC(=O)[C@@H](N)Cc1ccc(O)cc1)C(=O)N[C@@H](CCCNC(=N)N)C(=O)N[C@@H](Cc1ccccc1)C(N)=O [Compound No. 40]
5 | Methylthiocarbamoyl-Sar-D-Tyr-Asn-Trp-Asn-Ser-Phe-Gly-Leu-Arg(Me)-Phe-NH2 [Compound No. 397]
5 | CC(C)C[C@H](NC(=O)NNC(=O)[C@H](Cc1ccccc1)NC(=O)[C@H](CO)NC(=O)[C@H](CC(N)=O)NC(=O)[C@H](Cc1c[nH]c2ccccc12)NC(=O)[C@H](CC(N)=O)NC(=O)[C@@H](N)Cc1ccc(O)cc1)C(=O)N[C@@H](CCCNC(=N)N)C(=O)N[C@@H](Cc1ccccc1)C(N)=O [Compound No. 176, Tyr-Asn-Trp-Asn-Ser-Phe-AzaGly-Leu-Arg-Phe-NH2]

Compound | Specific Activity (intracellular Ca ion level-increasing activity)
CNC(=N)NCCC[C@H](NC(=O)[C@H](CC(C)C)NC(=O)NNC(=O)[C@H](Cc1ccccc1)NC(=O)[C@H](CO)NC(=O)[C@H](CC(N)=O)NC(=O)Cc1c[nH]cn1)C(=O)N[C@@H](Cc1ccccc1)C(N)=O [Compound No. 323, 4-Imidazoleacetyl-Asn-Ser-Phe-AzaGly-Leu-Arg(Me)-Phe-NH2] ({Acetyl(2-(4-imidazolyl))}-NSF[azaGly]L[Arg(Me)]F-NH2) | 1
D-Tyr-Asn-Trp-Gln-Ser-Phe-Gly-Leu-Arg(Me)-Phe-NH2 ([dY]NWQSFGL[Arg(Me)]F-NH2; N-terminus assumed; SMILES CNC(=N)NCCC[C@H](NC(=O)[C@H](CC(C)C)NC(=O)CNC(=O)[C@H](Cc1ccccc1)NC(=O)[C@H](CO)NC(=O)[C@H](CCC(N)=O)NC(=O)[C@H](Cc1c[nH]c2ccccc12)NC(=O)[C@H](CC(N)=O)NC(=O)[C@H](N)Cc1ccc(O)cc1)C(=O)N[C@@H](Cc1ccccc1)C(N)=O) [Compound No. 209] | ½
Boc-Tyr-Asn-Trp-Phe-Gly-Leu-Arg-Phe-NH2 (Boc-YNWFGLRF-NH2; SMILES CC(C)C[C@H](NC(=O)CNC(=O)[C@H](Cc1ccccc1)NC(=O)[C@H](Cc1c[nH]c2ccccc12)NC(=O)[C@H](CC(N)=O)NC(=O)[C@H](Cc1ccc(O)cc1)NC(=O)OC(C)(C)C)C(=O)N[C@@H](CCCNC(=N)N)C(=O)N[C@@H](Cc1ccccc1)C(N)=O) [Compound No. 87] | 1
